# How the values were obtained:
# [1] = target: T1, human recombinant dopamine D2L receptor (Homo sapiens, UniProt P14416); assay: Dopamine D2L radioligand binding ([3H]Spiperone); details: compound at 1 μM; read-out: Dopamine (1 μM) D2L, percent inhibition of specific binding
# T1 construct: expressed in transfected cells; host or cells: CHO cells
# Method: To evaluate in radioligand binding assays the activity of compounds of the invention, human recombinant dopamine D2L receptor expressed in Chinese hamster ovary (CHO) cells (Grandy, D. K. et al. Proc. Natl. Acad. Sci. USA. 86:9762, 1989; Hayes, G. et al., Mol. Endocrinol. 6:920, 1992) in a modified Tris-HCl buffer (50 mM Tris-HCl, pH 7.4, 1.4 mM Ascorbic Acid, 0.001% BSA, 150 mM NaCl) was used. Compounds of the invention were incubated with 0.16 nM [^3H]Spiperone for 120 min. at 25° C. Non-specific binding was estimated in the presence of 10 μM Haloperidol. Receptor proteins were filtered and washed, the filters were then counted to determine [^3H]Spiperone specifically bound. Compounds were screened at 1 μM or lower, using 1% DMSO as vehicle. Biochemical assay results are presented as the percent inhibition of specific binding in Table 5.
# [2] = target: T2, human recombinant serotonin (5-Hydroxytryptamine) 5-HT6 receptor (Homo sapiens, UniProt P50406); assay: Serotonin 5-HT6 radioligand binding ([3H]LSD); details: compound at 1 μM; read-out: Serotonin (1 μM) 5-HT6, percent inhibition of specific binding
# T2 construct: expressed in transfected cells; host or cells: human HeLa cells
# T2 sequence (P50406 whole entry): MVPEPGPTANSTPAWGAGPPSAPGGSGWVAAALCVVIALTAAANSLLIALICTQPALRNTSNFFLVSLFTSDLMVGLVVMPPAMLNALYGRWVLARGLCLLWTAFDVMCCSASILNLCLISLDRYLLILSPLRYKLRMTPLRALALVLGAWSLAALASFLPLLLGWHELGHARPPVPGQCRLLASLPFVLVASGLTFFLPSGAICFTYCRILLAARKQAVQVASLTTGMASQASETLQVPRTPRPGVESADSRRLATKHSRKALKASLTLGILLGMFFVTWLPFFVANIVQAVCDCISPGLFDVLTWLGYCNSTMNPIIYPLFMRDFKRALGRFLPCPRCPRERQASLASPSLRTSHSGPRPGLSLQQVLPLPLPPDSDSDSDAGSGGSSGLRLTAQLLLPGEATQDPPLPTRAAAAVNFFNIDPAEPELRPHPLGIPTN
# Method: To evaluate in radioligand binding assays the activity of compounds of the invention, human recombinant serotonin (5-Hydroxytryptamine) 5-HT6 receptor expressed in human HeLa cells (Monsma, F. J. Jr. et al., Mol. Pharmacol. 43:320, 1993) in a modified Tris-HCl buffer (50 mM Tris-HCl, pH 7.4, 150 mM NaCl, 2 mM Ascorbic Acid, 0.001% BSA) was used. Compounds of the invention were incubated with 1.5 nM [3H]Lysergic acid diethylamide (LSD) for 120 min. at 37° C. Non-specific binding was estimated in the presence of 5 μM Serotonin (5-HT). Receptor proteins were filtered and washed, the filters were then counted to determine [3H]LSD specifically bound. Compounds were screened at 1 μM or lower, using 1% DMSO as vehicle. Biochemical assay results are presented as the percent inhibition of specific binding in Table 6.
# [3] = target: T3, human recombinant histamine H2 receptor (Homo sapiens, UniProt P25021); assay: Histamine H2 radioligand binding ([125I]Aminopotentidine); details: compound at 1 μM; read-out: Histamine Binding (1 μM) H2, percent inhibition of specific binding
# T3 construct: expressed in transfected cells; host or cells: CHO-K1 cells
# T3 sequence (P25021 whole entry): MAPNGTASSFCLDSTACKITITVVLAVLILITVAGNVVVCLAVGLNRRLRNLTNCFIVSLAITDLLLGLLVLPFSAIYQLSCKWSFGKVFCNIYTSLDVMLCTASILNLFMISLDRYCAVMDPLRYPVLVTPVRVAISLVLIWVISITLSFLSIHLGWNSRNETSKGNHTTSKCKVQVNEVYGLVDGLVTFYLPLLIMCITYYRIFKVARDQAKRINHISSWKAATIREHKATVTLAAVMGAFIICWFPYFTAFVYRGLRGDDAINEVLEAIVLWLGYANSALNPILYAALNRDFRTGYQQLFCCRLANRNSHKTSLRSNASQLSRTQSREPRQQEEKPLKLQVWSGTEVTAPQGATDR
# Method: To evaluate in radioligand binding assays the activity of compounds of the invention, human recombinant histamine H2 receptor expressed in Chinese hamster ovary (CHO) K1 cells (Ruat, M., Proc. Natl. Acad. Sci. USA. 87(5):1658, 1990) in a 50 mM Phosphate buffer, pH 7.4 was used. Compounds of the invention were incubated with 0.1 nM [^125I]Aminopotentidine for 120 min. at 25° C. Non-specific binding was estimated in the presence of 3 μM Tiotidine. Receptor proteins were filtered and washed, the filters were then counted to determine [^125I]Aminopotentidine specifically bound. Compounds were screened at 1 μM or lower, using 1% DMSO as vehicle. Biochemical assay results are presented as the percent inhibition of specific binding in Table 6.
# [4] = target: T4, human recombinant serotonin (5-Hydroxytryptamine) 5-HT2C receptor (Homo sapiens, UniProt P28335); assay: Serotonin 5-HT2C radioligand binding ([3H]Mesulergine); details: compound at 1 μM; read-out: Serotonin (1 μM) 5-HT2C, percent inhibition of specific binding
# T4 construct: expressed in transfected cells; host or cells: CHO-K1 cells
# T4 sequence (P28335 33-458): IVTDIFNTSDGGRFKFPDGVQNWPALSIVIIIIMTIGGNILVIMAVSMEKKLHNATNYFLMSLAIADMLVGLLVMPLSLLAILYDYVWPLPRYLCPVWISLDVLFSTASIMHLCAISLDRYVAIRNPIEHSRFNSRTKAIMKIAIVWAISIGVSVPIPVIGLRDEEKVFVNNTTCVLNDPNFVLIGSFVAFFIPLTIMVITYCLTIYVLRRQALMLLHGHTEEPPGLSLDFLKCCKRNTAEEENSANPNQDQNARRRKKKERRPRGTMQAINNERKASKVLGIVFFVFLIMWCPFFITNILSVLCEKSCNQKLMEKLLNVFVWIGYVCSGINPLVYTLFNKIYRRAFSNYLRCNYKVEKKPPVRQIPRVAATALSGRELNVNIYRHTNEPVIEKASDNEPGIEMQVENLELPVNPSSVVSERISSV
# Method: To evaluate in radioligand binding assays the activity of compounds of the invention, human recombinant serotonin (5-Hydroxytryptamine) 5-HT2C receptor expressed in Chinese hamster ovary (CHO-K1) cells (Wolf, W. A. and Schutz, J. S., J. Neurochem. 69:1449, 1997) in a modified Tris-HCl buffer (50 mM Tris-HCl, pH 7.4, 0.1% Ascorbic Acid, 10 μM Pargyline) was used. Compounds of the invention were incubated with 1 nM [^3H]Mesulergine for 60 min. at 25° C. Non-specific binding was estimated in the presence of 1 μM Mianserin. Receptor proteins were filtered and washed, the filters were then counted to determine [^3H]Mesulergine specifically bound. Compounds were screened at 1 μM or lower, using 1% DMSO as vehicle. Biochemical assay results are presented as the percent inhibition of specific binding in Table 6.
# [5] = target: T5, human recombinant histamine H1 receptor (Homo sapiens, UniProt P35367); assay: Histamine H1 radioligand binding ([3H]Pyrilamine); details: compound at 1 μM; read-out: Histamine Binding (1 μM) H1, percent inhibition of specific binding
# T5 construct: expressed in transfected cells; host or cells: CHO cells
# T5 sequence (P35367 whole entry): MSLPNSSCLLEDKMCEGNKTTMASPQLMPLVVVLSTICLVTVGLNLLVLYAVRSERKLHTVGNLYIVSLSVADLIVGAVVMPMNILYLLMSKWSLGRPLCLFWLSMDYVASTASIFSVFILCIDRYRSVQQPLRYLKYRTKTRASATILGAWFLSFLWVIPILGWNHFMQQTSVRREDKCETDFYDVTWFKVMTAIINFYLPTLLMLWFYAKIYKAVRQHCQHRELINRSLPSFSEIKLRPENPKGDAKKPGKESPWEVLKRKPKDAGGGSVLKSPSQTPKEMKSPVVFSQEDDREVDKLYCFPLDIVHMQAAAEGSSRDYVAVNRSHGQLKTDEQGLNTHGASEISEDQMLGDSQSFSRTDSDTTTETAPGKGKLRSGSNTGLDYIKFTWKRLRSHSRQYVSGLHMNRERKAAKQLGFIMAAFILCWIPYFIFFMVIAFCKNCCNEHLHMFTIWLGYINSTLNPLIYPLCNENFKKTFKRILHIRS
# Method: To evaluate in radioligand binding assays the activity of compounds of the invention, human recombinant histamine H1 receptor expressed in Chinese hamster ovary (CHO) cells (De Backer, M. D. et al., Biochem. Biophys. Res. Comm. 197(3):1601, 1993) in a modified Tris-HCl buffer (50 mM Tris-HCl, pH 7.4, 2 mM MgCl2, 100 mM NaCl, 250 mM Sucrose) was used. Compounds of the invention were incubated with 1.2 nM [^3H]Pyrilamine for 180 min. at 25° C. Non-specific binding was estimated in the presence of 1 μM pyrilamine. Receptor proteins were filtered and washed, the filters were then counted to determine [^3H]Pyrilamine specifically bound. Compounds were screened at 1 μM or lower, using 1% DMSO as vehicle. Biochemical assay results are presented as the percent inhibition of specific binding in Table 6.
# [6] = target: T6, human recombinant serotonin (5-Hydroxytryptamine) 5-HT2A receptor (Homo sapiens, UniProt P28223); assay: Serotonin 5-HT2A radioligand binding ([3H]Ketanserin); details: compound at 1 μM; read-out: Serotonin (1 μM) 5-HT2A, percent inhibition of specific binding
# T6 construct: expressed in transfected cells; host or cells: CHO-K1 cells
# T6 sequence (P28223 whole entry): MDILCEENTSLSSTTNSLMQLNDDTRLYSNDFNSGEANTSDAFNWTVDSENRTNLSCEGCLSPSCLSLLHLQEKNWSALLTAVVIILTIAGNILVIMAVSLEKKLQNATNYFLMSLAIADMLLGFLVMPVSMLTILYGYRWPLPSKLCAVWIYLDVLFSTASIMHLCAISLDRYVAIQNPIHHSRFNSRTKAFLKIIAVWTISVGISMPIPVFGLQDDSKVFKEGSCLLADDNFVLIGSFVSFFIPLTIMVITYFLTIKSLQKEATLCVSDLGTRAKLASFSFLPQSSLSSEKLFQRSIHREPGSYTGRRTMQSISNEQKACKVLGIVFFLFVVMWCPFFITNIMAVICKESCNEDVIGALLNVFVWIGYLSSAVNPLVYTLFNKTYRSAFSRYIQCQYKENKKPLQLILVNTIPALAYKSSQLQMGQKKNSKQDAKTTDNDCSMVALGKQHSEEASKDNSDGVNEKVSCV
# Method: To evaluate in radioligand binding assays the activity of compounds of the invention, human recombinant serotonin (5-Hydroxytryptamine) 5-HT2A receptor expressed in Chinese hamster ovary (CHO-K1) cells (Bonhaus, D. W. et al. Br. J. Pharmacol. 115:622, 1995; Saucier, C. and Albert, P. R., J. Neurochem. 68:1998, 1997) in a 50 mM Tris-HCl buffer, pH 7.4, was used. Compounds of the invention were incubated with 0.5 nM [^3H]Ketanserin for 60 min. at 25° C. Non-specific binding was estimated in the presence of 1 μM Mianserin. Receptor proteins were filtered and washed, the filters were then counted to determine [^3H]Ketanserin specifically bound. Compounds were screened at 1 μM or lower, using 1% DMSO as vehicle. Biochemical assay results are presented as the percent inhibition of specific binding in Table 6.
# T1 sequence (P14416 whole entry): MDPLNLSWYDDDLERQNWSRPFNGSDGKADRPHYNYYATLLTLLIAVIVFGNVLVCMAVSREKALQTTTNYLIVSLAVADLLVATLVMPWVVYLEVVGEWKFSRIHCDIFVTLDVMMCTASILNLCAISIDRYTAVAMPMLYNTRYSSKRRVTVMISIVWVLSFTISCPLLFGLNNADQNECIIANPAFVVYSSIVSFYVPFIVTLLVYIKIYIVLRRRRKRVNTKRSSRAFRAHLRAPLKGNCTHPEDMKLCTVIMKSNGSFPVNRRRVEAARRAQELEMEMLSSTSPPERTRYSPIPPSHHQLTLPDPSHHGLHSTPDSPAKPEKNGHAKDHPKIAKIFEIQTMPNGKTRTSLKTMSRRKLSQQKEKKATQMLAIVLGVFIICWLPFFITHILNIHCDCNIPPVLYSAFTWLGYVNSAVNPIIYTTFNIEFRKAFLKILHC
Structure (SMILES),inhibition at 1 µM [1] [%],inhibition at 1 µM [2] [%],inhibition at 1 µM [3] [%],inhibition at 1 µM [4] [%],inhibition at 1 µM [5] [%],inhibition at 1 µM [6] [%]
"C/C(=C/n1c2c(c3cc(Cl)ccc31)CCN(C)CC2)c1ccccc1F [Compound No. 242, (Z)-9-chloro-6-(2-(2-fluorophenyl)prop-1-enyl)-3-methyl-1,2,3,4,5,6-hexahydroazepino[4,5-b]indole]",69,102,98,94,100,99
"C/C(=C\n1c2c(c3cc(Cl)ccc31)CCN(C)CC2)c1ccc(Cl)c(Cl)c1 [Compound No. 154, (E)-9-chloro-6-(2-(3,4-dichlorophenyl)prop-1-enyl)-1,2,3,4,5,6-hexahydro-3-methylazepino[4,5-b]indole]",33,92,97,99,94,100
"C/C(=C\n1c2c(c3cc(C)ccc31)CCN(C)CC2)c1ccncc1 [Compound No. 253, (E)-3,9-dimethyl-6-(2-(pyridin-4-yl)prop-1-enyl)-1,2,3,4,5,6-hexahydroazepino[4,5-b]indole]",55,103,31,101,32,102
"C/C(=C\n1c2c(c3cc(C)ccc31)CCN(C)CC2)c1cccnc1 [Compound No. 247, (E)-3,9-dimethyl-6-(2-(pyridin-3-yl)prop-1-enyl)-1,2,3,4,5,6-hexahydroazepino[4,5-b]indole]",8,74,36,99,82,98
"C/C(=C/n1c2c(c3cc(C)ccc31)CCN(C)CC2)c1cccc(F)c1 [Compound No. 251, (Z)-6-(2-(3-fluorophenyl)prop-1-enyl)-3,9-dimethyl-1,2,3,4,5,6-hexahydroazepino[4,5-b]indole]",35,99,95,99,96,101
"C/C(=C\n1c2c(c3cc(C)ccc31)CCN(C)CC2)c1ccc(F)c(F)c1 [Compound No. 177, (E)-6-(2-(3,4-difluorophenyl)prop-1-enyl)-1,2,3,4,5,6-hexahydro-3,9-dimethylazepino[4,5-b]indole]",25,96,92,99,93,98
"C/C(=C/n1c2c(c3cc(C)ccc31)CCN(C)CC2)c1ccccc1F [Compound No. 240, (Z)-6-(2-(2-fluorophenyl)prop-1-enyl)-3,9-dimethyl-1,2,3,4,5,6-hexahydroazepino[4,5-b]indole]",57,102,87,97,96,98
"C/C(=C\n1c2c(c3cc(Cl)ccc31)CCN(C)CC2)c1ccccc1F [Compound No. 243, (E)-9-chloro-6-(2-(2-fluorophenyl)prop-1-enyl)-3-methyl-1,2,3,4,5,6-hexahydroazepino[4,5-b]indole]",32,99,84,102,93,98
"COc1ccc(/C(C)=C/n2c3c(c4cc(C)ccc42)CCN(C)CC3)cc1F [Compound No. 179, (E)-6-(2-(3-fluoro-4-methoxyphenyl)prop-1-enyl)-1,2,3,4,5,6-hexahydro-3,9-dimethylazepino[4,5-b]indole]",23,77,88,100,45,98
"COc1ccc(C#Cn2c3c(c4cc(C)ccc42)CCN(C)CC3)cc1F [Compound No. 284, 6-((3-fluoro-4-methoxyphenyl)ethynyl)-3,9-dimethyl-1,2,3,4,5,6-hexahydroazepino[4,5-b]indole]",11,42,4,100,11,94
"C/C(=C\n1c2c(c3cc(Cl)ccc31)CCN(C)CC2)c1cccnc1 [Compound No. 246, (E)-9-chloro-3-methyl-6-(2-(pyridin-3-yl)prop-1-enyl)-1,2,3,4,5,6-hexahydroazepino[4,5-b]indole]",14,94,48,99,96,98
"COc1ccc(C#Cn2c3c(c4cc(Cl)ccc42)CCN(C)CC3)cc1F [Compound No. 283, 9-chloro-6-((3-fluoro-4-methoxyphenyl)ethynyl)-3-methyl-1,2,3,4,5,6-hexahydroazepino[4,5-b]indole]",12,40,83,100,12,90
